Laboratory results: BindingDB's records for doi:10.1016/j.bmc.2010.04.050 (Purdue University, 2010)

Biological target: Low molecular weight phosphotyrosine protein phosphatase ACP1 (Homo sapiens) (UniProt P24666)
Assay: Inhibition of human cytoplasmic protein tyrosine phosphatase A assessed as change in enzyme activity at pH 7

Sequence of Low molecular weight phosphotyrosine protein phosphatase ACP1 (Homo sapiens) (P24666 whole entry, looked up): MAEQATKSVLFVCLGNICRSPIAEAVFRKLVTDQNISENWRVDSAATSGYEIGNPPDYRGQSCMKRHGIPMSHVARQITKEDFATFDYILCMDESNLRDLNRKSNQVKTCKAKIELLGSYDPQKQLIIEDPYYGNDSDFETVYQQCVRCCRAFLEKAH

IC50: 72 µM
Compound: O=NC(Cc1ccnc2ccccc12)C(=O)O (stereo unspecified) [2-(hydroxyimino)-3-(quinolin-4-yl)propanoic acid]
